Results on nine compounds are retold here after ChEMBL document CHEMBL2380240, “Discovery, synthesis, selectivity modulation and DMPK characterization of 5-azaspiro[2.4]heptanes as potent orexin receptor antagonists” (Bioorg Med Chem Lett, 2013).

The target of data set [1] is T1, CYP2C9 (Homo sapiens, UniProt P11712). Nature of the data set: Inhibition of human recombinant CYP2C9 at 1 uM by fluorimetric assay. The data set is classed as ADME.
In data set [2] the target is T2, CYP2C19 (Homo sapiens, UniProt P33261). Nature of the data set: Inhibition of human recombinant CYP2C19 at 1 uM by fluorimetric assay. It counts as ADME.
T2 sequence (P33261 whole entry): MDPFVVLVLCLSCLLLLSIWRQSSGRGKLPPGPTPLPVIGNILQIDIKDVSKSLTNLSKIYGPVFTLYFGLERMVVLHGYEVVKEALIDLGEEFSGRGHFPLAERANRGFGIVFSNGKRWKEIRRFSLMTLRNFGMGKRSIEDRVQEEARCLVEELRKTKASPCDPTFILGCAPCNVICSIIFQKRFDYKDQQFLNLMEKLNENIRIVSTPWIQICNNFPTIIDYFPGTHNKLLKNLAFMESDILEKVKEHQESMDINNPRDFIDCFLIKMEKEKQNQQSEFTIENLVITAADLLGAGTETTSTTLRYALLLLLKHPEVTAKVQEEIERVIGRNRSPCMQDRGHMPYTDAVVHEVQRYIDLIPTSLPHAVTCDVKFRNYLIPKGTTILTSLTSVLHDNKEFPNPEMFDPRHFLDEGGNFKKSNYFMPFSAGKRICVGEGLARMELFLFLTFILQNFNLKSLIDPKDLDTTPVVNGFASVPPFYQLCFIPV
Data set [3] has as its target T3, CYP1A2 (Homo sapiens, UniProt P05177).
T3 sequence (P05177 whole entry): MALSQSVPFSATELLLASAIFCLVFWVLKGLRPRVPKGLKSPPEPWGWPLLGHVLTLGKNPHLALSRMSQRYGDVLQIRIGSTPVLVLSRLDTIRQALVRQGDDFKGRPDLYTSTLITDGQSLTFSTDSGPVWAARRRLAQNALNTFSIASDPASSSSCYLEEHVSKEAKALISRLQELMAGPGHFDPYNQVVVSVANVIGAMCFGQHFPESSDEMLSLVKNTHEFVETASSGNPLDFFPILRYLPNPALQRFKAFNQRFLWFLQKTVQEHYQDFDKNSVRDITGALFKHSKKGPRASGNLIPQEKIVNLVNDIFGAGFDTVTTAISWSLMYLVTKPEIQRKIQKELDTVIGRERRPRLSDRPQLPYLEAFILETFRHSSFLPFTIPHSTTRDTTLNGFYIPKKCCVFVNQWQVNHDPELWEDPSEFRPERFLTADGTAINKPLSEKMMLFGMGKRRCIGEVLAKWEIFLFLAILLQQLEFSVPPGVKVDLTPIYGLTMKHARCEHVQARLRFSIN
Nature of the data set: Inhibition of human recombinant CYP1A2 at 1 uM by fluorimetric assay. It counts as ADME.

The target of data set [4] is T4, CYP2D6 (Homo sapiens, UniProt P10635). Nature of the data set: Inhibition of human recombinant CYP2D6 at 1 uM by fluorimetric assay. The data set is classed as ADME.
T4 sequence (P10635 whole entry): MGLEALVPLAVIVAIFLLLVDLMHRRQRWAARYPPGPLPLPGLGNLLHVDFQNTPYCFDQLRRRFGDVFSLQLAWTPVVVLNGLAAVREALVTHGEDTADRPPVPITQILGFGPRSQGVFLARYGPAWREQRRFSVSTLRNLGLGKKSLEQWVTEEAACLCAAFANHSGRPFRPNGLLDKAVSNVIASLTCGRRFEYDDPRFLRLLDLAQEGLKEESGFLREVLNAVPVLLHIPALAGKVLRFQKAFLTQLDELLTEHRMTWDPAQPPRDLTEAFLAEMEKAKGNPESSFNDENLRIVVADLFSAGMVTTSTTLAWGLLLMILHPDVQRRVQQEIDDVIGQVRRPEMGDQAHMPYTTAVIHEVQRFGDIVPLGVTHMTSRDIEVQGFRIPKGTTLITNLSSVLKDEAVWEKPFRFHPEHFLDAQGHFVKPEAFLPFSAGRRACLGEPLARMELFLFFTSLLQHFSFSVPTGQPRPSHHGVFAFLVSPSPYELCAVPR
Data set [5] deals with T5, CYP3A4 (Homo sapiens, UniProt P08684). Nature of the data set: Inhibition of human recombinant CYP3A4 using BFC as substrate at 1 uM by fluorimetric assay. It counts as ADME. Particulars: recombinant CYP3A4, probe BFC.
T5 sequence (P08684 whole entry): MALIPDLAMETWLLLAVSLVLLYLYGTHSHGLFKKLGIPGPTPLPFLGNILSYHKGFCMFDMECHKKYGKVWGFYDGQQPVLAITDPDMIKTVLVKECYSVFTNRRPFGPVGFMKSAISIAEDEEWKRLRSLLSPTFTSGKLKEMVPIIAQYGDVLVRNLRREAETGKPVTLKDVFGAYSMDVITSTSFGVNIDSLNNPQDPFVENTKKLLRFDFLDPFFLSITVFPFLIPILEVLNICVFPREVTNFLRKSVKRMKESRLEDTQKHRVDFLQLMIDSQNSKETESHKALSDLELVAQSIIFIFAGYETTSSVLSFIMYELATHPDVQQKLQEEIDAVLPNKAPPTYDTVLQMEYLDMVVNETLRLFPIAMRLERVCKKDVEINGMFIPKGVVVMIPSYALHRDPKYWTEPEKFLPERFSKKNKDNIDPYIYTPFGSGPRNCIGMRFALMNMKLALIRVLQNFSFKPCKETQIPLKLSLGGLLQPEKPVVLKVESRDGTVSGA
Data set [6] deals with T5, CYP3A4. Nature of the data set: Inhibition of human recombinant CYP3A4 using DBF as substrate at 1 uM by fluorimetric assay. Particulars: recombinant CYP3A4, probe DBF. The data set is classed as ADME.
For data set [7], the target named is T6, Orexin/Hypocretin receptor type 1 (Homo sapiens) (UniProt O43613).
T6 sequence (whole entry): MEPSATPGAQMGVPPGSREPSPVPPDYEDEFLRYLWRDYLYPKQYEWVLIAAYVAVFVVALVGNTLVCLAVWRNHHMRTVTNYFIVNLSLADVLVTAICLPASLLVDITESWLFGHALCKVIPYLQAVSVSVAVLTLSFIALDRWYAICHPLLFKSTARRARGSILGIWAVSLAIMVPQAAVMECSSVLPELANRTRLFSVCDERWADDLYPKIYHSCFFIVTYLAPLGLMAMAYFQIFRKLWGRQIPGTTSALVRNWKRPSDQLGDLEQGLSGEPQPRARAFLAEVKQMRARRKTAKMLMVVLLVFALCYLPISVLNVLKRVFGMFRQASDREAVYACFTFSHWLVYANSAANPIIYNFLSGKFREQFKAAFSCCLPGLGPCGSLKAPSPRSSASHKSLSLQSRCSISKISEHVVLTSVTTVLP
Nature of the data set: Antagonist activity at human recombinant OX1 receptor expressed in CHO cells assessed as OXA-stimulated intracellular calcium mobilization by FLIPR assay. The data set is classed as functional, cell-based.

Data set [8] addresses T7, Orexin receptor type 2 (Homo sapiens) (UniProt O43614).
T7 sequence (whole entry): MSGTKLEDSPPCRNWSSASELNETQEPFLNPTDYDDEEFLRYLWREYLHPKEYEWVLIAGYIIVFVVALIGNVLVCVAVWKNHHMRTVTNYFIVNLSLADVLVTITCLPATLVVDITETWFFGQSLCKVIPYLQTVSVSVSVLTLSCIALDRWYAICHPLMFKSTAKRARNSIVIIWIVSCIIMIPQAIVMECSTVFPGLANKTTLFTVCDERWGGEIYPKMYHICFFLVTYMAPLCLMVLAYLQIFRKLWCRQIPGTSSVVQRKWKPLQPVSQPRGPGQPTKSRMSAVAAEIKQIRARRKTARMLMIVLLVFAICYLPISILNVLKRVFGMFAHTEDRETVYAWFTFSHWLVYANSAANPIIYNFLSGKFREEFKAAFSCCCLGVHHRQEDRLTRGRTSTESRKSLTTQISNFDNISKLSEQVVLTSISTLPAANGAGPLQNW
Nature of the data set: Antagonist activity at human recombinant OX2 receptor expressed in HEK293 cells assessed as OXB-stimulated intracellular calcium mobilization by FLIPR assay. It counts as functional, cell-based. A general note: Calcium flux is commonly read through the fluorescence of an indicator in the cells.

Data set [9] concerns the target T2, CYP2C19. Nature of the data set: Inhibition of human recombinant CYP2C19 at 3 uM by fluorimetric assay. It counts as ADME.
The target of data set [10] is T1, CYP2C9. Nature of the data set: Inhibition of human recombinant CYP2C9 at 3 uM by fluorimetric assay. It counts as ADME.
For data set [11], the target named is T3, CYP1A2. Nature of the data set: Inhibition of human recombinant CYP1A2 at 3 uM by fluorimetric assay. The data set is classed as ADME.
The target in data set [12] is T5, CYP3A4. Nature of the data set: Inhibition of human recombinant CYP3A4 using BFC as substrate at 3 uM by fluorimetric assay. Particulars: recombinant CYP3A4, probe BFC. It counts as ADME.
In data set [13] the target is T4, CYP2D6. Nature of the data set: Inhibition of human recombinant CYP2D6 at 3 uM by fluorimetric assay. It counts as ADME.
Data set [14] deals with T5, CYP3A4. Nature of the data set: Inhibition of human recombinant CYP3A4 using DBF as substrate at 3 uM by fluorimetric assay. It counts as ADME. Particulars: recombinant CYP3A4, probe DBF.

T1 sequence (P11712 whole entry): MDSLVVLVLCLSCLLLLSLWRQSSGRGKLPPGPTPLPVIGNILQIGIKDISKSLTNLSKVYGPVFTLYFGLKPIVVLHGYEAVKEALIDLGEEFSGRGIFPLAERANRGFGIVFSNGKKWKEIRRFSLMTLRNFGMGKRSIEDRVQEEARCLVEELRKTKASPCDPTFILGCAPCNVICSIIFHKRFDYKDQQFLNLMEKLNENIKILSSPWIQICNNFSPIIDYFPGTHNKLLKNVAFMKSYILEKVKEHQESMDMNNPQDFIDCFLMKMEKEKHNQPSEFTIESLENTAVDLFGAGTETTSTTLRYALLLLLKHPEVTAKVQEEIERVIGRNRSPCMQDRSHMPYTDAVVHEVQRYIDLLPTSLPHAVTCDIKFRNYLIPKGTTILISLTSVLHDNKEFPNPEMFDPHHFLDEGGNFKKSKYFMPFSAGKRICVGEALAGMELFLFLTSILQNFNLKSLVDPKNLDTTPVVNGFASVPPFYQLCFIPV

The term inhibition denotes the relative decrease from the control value, in per cent. In general, pKb refers to −log10 of the Kb, conventionally taken in molar units. As to `Cc1ccc(-c2ncccn2)c(C(=O)N2CC3(CC3)C[C@H]2CNc2cc(C(F)(F)F)ccn2)c1`, the inhibition at 1 µM on CYP2C9 [1], at CYP2C19 [2], at CYP1A2 [3], on CYP2D6 [4], at CYP3A4 [5] and at CYP3A4 [6] was below 72% throughout. The pKb was found to be 7.3 in data set [7] and 7.8 in data set [8].

Take `O=C(c1cc(Cl)ccc1-c1ncccn1)N1CC2(CC2)C[C@H]1CNc1cc(C(F)(F)F)ccn1`: the inhibition at 1 µM on CYP2C9 [1], at CYP2C19 [2], at CYP1A2 [3], at CYP2D6 [4], on CYP3A4 [5] and on CYP3A4 [6] was below 57% throughout. The pKb in data set [7] is 8.1; in data set [8], 7.1.

Consider `Cc1ccc(OCc2ccccc2)c(C(=O)N2CC3(CC3)C[C@H]2CNc2ccc(C(F)(F)F)cn2)n1`, for which the inhibition at 3 µM on CYP2C19 [9], on CYP2C9 [10], on CYP1A2 [11], on CYP3A4 [12], at CYP2D6 [13] and on CYP3A4 [14] was below 71% each time. In addition, the pKb in [7] and in [8] was 8.6 throughout.

`Cc1cc(C(F)(F)F)cc(NC[C@@H]2CC3(CC3)CN2C(=O)c2nc(C)sc2-c2ccccc2)n1`: the inhibition at 1 µM at CYP2C9 [1], on CYP2C19 [2], at CYP1A2 [3], on CYP2D6 [4], at CYP3A4 [5] and on CYP3A4 [6] was below 69% each time. In addition, the pKb in data set [7] is 7.8; in data set [8], 8.6.

For the compound `CS(=O)(=O)c1ccc(-c2ccccc2)c(C(=O)N2CC3(CC3)C[C@H]2CNc2ccc(C(F)(F)F)cn2)c1`, the inhibition at 3 µM at CYP2C19 [9], at CYP2C9 [10], at CYP1A2 [11], at CYP3A4 [12], at CYP2D6 [13] and at CYP3A4 [14] was below 41% in each case. The pKb stood at 6.7 in data set [7] and 7.1 in data set [8].

As to `Cc1ccc(-c2ncccn2)c(C(=O)N2CC3(CC3)C[C@H]2CNc2cc(C#N)ccn2)n1`, the inhibition at 1 µM at CYP2C9 [1], at CYP2C19 [2], on CYP1A2 [3], on CYP2D6 [4], at CYP3A4 [5] and on CYP3A4 [6] was below 17% each time.

As for `N#Cc1ccc(-c2ncccn2)c(C(=O)N2CC3(CC3)C[C@H]2CNc2ccc(C(F)(F)F)cn2)c1`, the inhibition at 3 µM on CYP2C19 [9], on CYP2C9 [10], at CYP1A2 [11], at CYP3A4 [12], at CYP2D6 [13] and on CYP3A4 [14] was below 32% throughout. Besides, the pKb in data set [7] amounted to 8; in [8], 8.1.

On to `O=C(c1ncccc1-c1ncccn1)N1CC2(CC2)C[C@H]1CNc1ccc(C(F)(F)F)cn1`, for which the inhibition at 3 µM on CYP2C19 [9], at CYP2C9 [10], at CYP1A2 [11], on CYP3A4 [12], at CYP2D6 [13] and on CYP3A4 [14] was below 47% in each case. In addition, the pKb worked out at 7.7 in data set [7] and 5 in data set [8].

As to `Cc1nc(C(=O)N2CC3(CC3)C[C@H]2CNc2cc(C(F)(F)F)ccn2)c(-c2ccccc2)s1`, the inhibition at 1 µM on CYP2C9 [1], at CYP2C19 [2], on CYP1A2 [3], at CYP2D6 [4], at CYP3A4 [5] and on CYP3A4 [6] was below 55% each time. Further, the pKb was 8.2 in data set [7] and 8.5 in [8].
